How the values were obtained:
Format in all cases: biochemical
PI3Kδ = target: T1, PI3Kδ (Homo sapiens, UniProt O00329); experiment: TR-FRET enzymatic activity assay, PI3Kδ; details: recombinant heterodimeric PI3Kδ 25-50 pM, 2× Km ATP, 30 minutes at 25°C
T1 construct: made in house
How it was run: (§1)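 Activity measured by time-resolved FRET; each isoform tested in its own enzymatic reaction.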

PI3Kβ = target: T2, PI3Kβ (Homo sapiens, UniProt P42338); experiment: TR-FRET enzymatic activity assay, PI3Kβ; details: recombinant heterodimeric PI3Kβ 25-50 pM, 2× Km ATP, 30 minutes at 25°C
T2 construct: made in house
T2 sequence (P42338 whole entry): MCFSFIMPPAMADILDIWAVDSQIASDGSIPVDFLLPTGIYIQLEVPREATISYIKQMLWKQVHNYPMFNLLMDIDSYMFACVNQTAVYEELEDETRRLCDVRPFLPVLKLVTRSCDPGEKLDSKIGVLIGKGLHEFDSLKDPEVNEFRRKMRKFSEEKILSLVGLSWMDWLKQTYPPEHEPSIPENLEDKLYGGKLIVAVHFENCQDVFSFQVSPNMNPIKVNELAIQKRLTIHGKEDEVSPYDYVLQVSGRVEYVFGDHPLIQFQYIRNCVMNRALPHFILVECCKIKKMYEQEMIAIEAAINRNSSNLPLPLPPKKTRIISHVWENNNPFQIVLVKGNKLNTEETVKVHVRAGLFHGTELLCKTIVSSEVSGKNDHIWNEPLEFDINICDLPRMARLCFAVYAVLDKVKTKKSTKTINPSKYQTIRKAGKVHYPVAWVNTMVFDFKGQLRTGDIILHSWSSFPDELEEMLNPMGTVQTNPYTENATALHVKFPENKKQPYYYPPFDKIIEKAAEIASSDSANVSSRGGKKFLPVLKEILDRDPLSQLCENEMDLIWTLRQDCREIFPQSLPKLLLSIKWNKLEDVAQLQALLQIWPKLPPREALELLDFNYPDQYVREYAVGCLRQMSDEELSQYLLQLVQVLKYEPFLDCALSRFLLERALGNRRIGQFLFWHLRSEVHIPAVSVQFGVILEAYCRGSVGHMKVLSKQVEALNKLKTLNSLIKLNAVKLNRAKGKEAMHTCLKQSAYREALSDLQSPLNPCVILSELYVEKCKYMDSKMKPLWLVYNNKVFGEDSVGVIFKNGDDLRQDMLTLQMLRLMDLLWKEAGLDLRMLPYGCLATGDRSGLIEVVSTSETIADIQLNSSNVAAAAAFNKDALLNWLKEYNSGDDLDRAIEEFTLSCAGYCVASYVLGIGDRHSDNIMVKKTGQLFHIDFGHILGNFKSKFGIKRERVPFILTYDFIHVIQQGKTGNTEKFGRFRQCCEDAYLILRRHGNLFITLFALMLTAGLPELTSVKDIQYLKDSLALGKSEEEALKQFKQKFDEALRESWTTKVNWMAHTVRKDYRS
T2 sequence (P27986 whole entry partner): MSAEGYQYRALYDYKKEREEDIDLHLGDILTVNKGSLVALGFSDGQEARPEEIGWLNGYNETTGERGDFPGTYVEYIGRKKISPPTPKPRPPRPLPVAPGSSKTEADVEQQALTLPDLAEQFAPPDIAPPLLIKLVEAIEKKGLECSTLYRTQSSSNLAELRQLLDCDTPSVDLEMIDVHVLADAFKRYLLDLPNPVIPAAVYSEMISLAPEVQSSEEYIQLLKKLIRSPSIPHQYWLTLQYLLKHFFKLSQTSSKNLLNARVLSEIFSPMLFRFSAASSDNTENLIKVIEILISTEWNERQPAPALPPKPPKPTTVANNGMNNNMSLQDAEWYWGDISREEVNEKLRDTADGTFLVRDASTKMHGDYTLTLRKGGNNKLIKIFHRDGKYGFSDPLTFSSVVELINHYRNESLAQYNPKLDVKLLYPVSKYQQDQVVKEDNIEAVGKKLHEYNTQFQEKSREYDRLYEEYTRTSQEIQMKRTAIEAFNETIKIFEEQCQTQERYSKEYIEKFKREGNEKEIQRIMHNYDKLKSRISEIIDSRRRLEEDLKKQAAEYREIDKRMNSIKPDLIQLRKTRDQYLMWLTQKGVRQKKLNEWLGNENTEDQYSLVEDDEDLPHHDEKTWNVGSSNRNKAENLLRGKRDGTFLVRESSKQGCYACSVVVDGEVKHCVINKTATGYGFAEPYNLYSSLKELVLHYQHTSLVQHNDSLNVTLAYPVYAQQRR
How it was run: as §1

PI3Kγ = target: T3, PI3Kγ (Homo sapiens, UniProt P48736); experiment: TR-FRET enzymatic activity assay, PI3Kγ; details: recombinant heterodimeric PI3Kγ 2 nM, 2× Km ATP, 30 minutes at 25°C
T3 construct: made in house
T3 sequence (P48736 whole entry): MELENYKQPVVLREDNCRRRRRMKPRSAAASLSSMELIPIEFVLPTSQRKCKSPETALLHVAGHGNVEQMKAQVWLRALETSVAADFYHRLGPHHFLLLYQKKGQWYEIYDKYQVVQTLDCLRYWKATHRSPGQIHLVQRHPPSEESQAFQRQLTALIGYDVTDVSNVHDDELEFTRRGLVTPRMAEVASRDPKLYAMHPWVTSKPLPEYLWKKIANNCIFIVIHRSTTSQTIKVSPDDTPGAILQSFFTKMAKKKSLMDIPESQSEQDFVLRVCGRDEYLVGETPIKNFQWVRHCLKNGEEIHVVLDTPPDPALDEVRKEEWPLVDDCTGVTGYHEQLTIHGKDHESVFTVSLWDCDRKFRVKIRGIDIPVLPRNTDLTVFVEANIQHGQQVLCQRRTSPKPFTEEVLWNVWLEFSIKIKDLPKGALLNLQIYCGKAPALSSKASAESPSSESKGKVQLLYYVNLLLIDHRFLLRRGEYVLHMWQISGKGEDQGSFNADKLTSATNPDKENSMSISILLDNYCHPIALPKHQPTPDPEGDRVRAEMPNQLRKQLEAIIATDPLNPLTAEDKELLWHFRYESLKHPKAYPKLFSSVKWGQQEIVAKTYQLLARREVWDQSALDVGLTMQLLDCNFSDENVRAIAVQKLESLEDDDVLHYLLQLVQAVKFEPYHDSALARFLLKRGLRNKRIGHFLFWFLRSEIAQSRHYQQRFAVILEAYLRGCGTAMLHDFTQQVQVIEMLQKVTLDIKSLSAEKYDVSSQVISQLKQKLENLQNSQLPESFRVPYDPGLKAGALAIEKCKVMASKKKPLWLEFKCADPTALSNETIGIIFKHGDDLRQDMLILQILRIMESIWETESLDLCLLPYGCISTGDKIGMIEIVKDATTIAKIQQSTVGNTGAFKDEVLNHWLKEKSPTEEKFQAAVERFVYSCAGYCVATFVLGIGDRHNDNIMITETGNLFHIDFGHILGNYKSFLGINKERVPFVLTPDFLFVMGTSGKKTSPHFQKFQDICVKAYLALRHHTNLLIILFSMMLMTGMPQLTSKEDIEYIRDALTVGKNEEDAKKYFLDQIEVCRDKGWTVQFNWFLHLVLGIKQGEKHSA
T3 sequence (Q8WYR1 whole entry partner): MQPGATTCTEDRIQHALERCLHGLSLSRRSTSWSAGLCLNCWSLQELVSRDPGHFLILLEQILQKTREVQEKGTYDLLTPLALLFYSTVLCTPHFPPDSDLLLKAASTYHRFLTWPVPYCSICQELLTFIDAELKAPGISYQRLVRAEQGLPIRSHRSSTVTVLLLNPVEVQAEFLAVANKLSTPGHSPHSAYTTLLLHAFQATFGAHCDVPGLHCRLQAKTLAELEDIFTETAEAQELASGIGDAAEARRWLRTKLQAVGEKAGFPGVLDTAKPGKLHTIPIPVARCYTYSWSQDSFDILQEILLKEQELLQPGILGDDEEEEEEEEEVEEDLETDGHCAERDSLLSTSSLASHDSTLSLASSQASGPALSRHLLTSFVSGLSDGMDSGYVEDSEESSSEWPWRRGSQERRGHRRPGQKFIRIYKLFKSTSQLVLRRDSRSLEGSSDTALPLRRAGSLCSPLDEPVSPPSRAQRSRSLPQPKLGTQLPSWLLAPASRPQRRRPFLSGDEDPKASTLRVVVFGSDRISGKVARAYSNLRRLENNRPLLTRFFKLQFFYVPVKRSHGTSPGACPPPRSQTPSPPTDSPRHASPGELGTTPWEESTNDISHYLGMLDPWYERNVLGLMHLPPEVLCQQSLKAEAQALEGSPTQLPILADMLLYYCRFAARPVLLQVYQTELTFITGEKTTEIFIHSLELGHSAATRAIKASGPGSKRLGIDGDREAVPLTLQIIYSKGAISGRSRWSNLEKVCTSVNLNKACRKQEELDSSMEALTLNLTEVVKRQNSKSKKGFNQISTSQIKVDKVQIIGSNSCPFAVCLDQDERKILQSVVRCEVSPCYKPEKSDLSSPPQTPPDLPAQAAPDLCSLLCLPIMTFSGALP
How it was run: as §1

T1 sequence (O00329 whole entry): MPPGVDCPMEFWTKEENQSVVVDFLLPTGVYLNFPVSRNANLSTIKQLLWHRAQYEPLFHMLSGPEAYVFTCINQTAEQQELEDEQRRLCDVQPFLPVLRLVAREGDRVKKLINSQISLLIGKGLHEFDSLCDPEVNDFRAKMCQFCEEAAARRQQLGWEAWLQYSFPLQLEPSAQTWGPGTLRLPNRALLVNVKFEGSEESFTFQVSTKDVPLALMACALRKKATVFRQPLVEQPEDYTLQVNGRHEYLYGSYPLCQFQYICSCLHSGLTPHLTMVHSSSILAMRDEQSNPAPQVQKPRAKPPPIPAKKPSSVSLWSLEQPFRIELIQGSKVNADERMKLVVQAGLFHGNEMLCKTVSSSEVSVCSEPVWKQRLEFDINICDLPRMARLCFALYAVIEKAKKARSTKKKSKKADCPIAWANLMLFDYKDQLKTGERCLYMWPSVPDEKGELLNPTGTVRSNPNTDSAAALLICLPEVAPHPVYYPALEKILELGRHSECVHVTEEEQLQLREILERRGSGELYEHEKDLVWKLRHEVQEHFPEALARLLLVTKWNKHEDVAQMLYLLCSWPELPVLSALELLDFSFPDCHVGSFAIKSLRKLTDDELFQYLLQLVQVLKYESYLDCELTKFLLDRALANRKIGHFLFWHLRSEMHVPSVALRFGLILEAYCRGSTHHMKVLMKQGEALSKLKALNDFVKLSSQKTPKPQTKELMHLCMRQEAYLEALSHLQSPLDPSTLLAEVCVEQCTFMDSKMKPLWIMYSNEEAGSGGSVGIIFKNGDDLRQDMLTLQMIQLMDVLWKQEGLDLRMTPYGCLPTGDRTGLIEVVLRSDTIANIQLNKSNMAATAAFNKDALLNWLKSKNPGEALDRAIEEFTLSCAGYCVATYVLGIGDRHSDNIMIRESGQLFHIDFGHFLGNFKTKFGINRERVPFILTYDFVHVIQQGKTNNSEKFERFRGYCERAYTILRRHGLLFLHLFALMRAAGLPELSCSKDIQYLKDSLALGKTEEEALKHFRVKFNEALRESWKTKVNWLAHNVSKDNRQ
T1 sequence (P27986 whole entry partner): as the sequence (P27986 whole entry partner) above

For CC[C@H](Nc1nc(N)nc(N)c1C#N)c1nc2c(F)ccc(Cl)c2c(=O)n1N1CCN(Cc2ccccc2)CC1 [Compound 95, (S)-2,4-diamino-6-((1-(3-(4-benzylpiperazin-1-yl)-5-chloro-8-fluoro-4-oxo-3,4-dihydroquinazolin-2-yl)propyl)amino)pyrimidine-5-carbonitrile], the IC50 (PI3Kδ) was 38 nM, the IC50 (PI3Kβ) was 96 nM and the IC50 (PI3Kγ) was 2000 nM.
For C[C@H](Nc1nc(N)nc(N)c1C#N)c1nc2cccc(Cl)c2c(=O)n1N1CCN(CCOC(C)(C)C)CC1 [Compound 96, (S)-2,4-diamino-6-((1-(3-(4-(2-(tert-butoxy)ethyl)piperazin-1-yl)-5-chloro-4-oxo-3,4-dihydroquinazolin-2-yl)ethyl)amino)pyrimidine-5-carbonitrile], the IC50 (PI3Kδ) was 15 nM, the IC50 (PI3Kβ) was 10 nM and the IC50 (PI3Kγ) was 1000 nM.
C[C@H](Nc1nc(N)nc(N)c1C#N)c1nc2cccc(Cl)c2c(=O)n1N1CCN(C2COC2)CC1 [Compound 97, (S)-2,4-diamino-6-((1-(5-chloro-3-(4-(oxetan-3-yl)piperazin-1-yl)-4-oxo-3,4-dihydroquinazolin-2-yl)ethyl)amino)pyrimidine-5-carbonitrile] showed an IC50 (PI3Kδ) of 15 nM, an IC50 (PI3Kβ) of 93 nM and an IC50 (PI3Kγ) of 460 nM.
C[C@H](Nc1nc(N)nc(N)c1C#N)c1nc2cccc(Cl)c2c(=O)n1N1CCN(CC(C)(C)C)CC1 [Compound 98, (S)-2,4-diamino-6-((1-(5-chloro-3-(4-neopentylpiperazin-1-yl)-4-oxo-3,4-dihydroquinazolin-2-yl)ethyl)amino)pyrimidine-5-carbonitrile] showed an IC50 (PI3Kδ) of 5 nM, an IC50 (PI3Kβ) of 4 nM and an IC50 (PI3Kγ) of 1200 nM.
C[C@H](Nc1nc(N)nc(N)c1C#N)c1nc2cccc(Cl)c2c(=O)n1C1CCN(CC(F)F)CC1 [Compound 99, (S)-2,4-diamino-6-((1-(5-chloro-3-(1-(2,2-difluoroethyl)piperidin-4-yl)-4-oxo-3,4-dihydroquinazolin-2-yl)ethyl)amino)pyrimidine-5-carbonitrile] showed an IC50 (PI3Kδ) of 14 nM, an IC50 (PI3Kβ) of 720 nM and an IC50 (PI3Kγ) of 1600 nM.
With C[C@H](Nc1nc(N)nc(N)c1C#N)c1nc2cccc(Cl)c2c(=O)n1C1CCN(CC(F)(F)F)CC1 [Compound 100, (S)-2,4-diamino-6-((1-(5-chloro-4-oxo-3-(1-(2,2,2-trifluoroethyl)piperidin-4-yl)-3,4-dihydroquinazolin-2-yl)ethyl)amino)pyrimidine-5-carbonitrile] the IC50 (PI3Kδ) was 15 nM, the IC50 (PI3Kβ) was 970 nM and the IC50 (PI3Kγ) was 1300 nM.
C[C@H](Nc1nc(N)nc(N)c1C#N)c1nc2cccc(Cl)c2c(=O)n1C1CCN(Cc2ccccc2)CC1 [Compound 101, (S)-2,4-diamino-6-((1-(3-(1-benzylpiperidin-4-yl)-5-chloro-4-oxo-3,4-dihydroquinazolin-2-yl)ethyl)amino)pyrimidine-5-carbonitrile] showed an IC50 (PI3Kδ) of 21 nM, an IC50 (PI3Kβ) of 44 nM and an IC50 (PI3Kγ) of 4200 nM.
With N#Cc1c(N)ncnc1N[C@H](c1nc2cccc(Cl)c2c(=O)n1N1CCNCC1)C1CC1 [Compound 102, (S)-4-amino-6-(((5-chloro-4-oxo-3-(piperazin-1-yl)-3,4-dihydroquinazolin-2-yl)(cyclopropyl)methyl)amino)pyrimidine-5-carbonitrile] the IC50 (PI3Kδ) was 2 nM, the IC50 (PI3Kβ) was 57 nM and the IC50 (PI3Kγ) was greater than 10000 nM.
Work on C[C@H](Nc1ncnc(N)c1C#N)c1nc2cccc(Cl)c2c(=O)n1C1CCN(CC(F)(F)F)CC1 [Compound 103, (S)-4-amino-6-((1-(5-chloro-4-oxo-3-(1-(2,2,2-trifluoroethyl)piperidin-4-yl)-3,4-dihydroquinazolin-2-yl)ethyl)amino)pyrimidine-5-carbonitrile] yielded an IC50 (PI3Kδ) of 10 nM, an IC50 (PI3Kβ) of 2200 nM and an IC50 (PI3Kγ) greater than 10000 nM.
For C[C@H](Nc1nc(N)nc(N)c1Cl)c1nc2cccc(Cl)c2c(=O)n1C1CCN(CC(F)(F)F)CC1 [Compound 104, (S)-5-chloro-2-(1-((2,6-diamino-5-chloropyrimidin-4-yl)amino)ethyl)-3-(1-(2,2,2-trifluoroethyl)piperidin-4-yl)quinazolin-4(3H)-one], the IC50 (PI3Kδ) was 260 nM, the IC50 (PI3Kβ) was 10000 nM and the IC50 (PI3Kγ) was greater than 10000 nM.
C[C@H](Nc1ncnc(N)c1C#N)c1nc2cccc(Cl)c2c(=O)n1C1CCN(CC(F)F)CC1 [Compound 105, (S)-4-amino-6-((1-(5-chloro-3-(1-(2,2-difluoroethyl)piperidin-4-yl)-4-oxo-3,4-dihydroquinazolin-2-yl)ethyl)amino)pyrimidine-5-carbonitrile] showed an IC50 (PI3Kδ) of 9 nM, an IC50 (PI3Kβ) of 1900 nM and an IC50 (PI3Kγ) greater than 10000 nM.
Cc1nc(N)nc(N[C@@H](C)c2nc3cccc(Cl)c3c(=O)n2C2CCN(CC(F)(F)F)CC2)c1C#N [Compound 106, (S)-2-amino-4-((1-(5-chloro-4-oxo-3-(1-(2,2,2-trifluoroethyl)piperidin-4-yl)-3,4-dihydroquinazolin-2-yl)ethyl)amino)-6-methylpyrimidine-5-carbonitrile] showed an IC50 (PI3Kδ) of 11 nM, an IC50 (PI3Kβ) of 260 nM and an IC50 (PI3Kγ) of 710 nM.
C[C@H](Nc1nc(N)nc(N)c1C#N)c1nc2cccc(Cl)c2c(=O)n1N1CCN(CC(F)(F)F)CC1 [Compound 107, (S)-2,4-diamino-6-((1-(5-chloro-4-oxo-3-(4-(2,2,2-trifluoroethyl)piperazin-1-yl)-3,4-dihydroquinazolin-2-yl)ethyl)amino)pyrimidine-5-carbonitrile] gave an IC50 (PI3Kδ) of 16 nM, an IC50 (PI3Kβ) of 520 nM and an IC50 (PI3Kγ) of 630 nM.
Work on C[C@H](Nc1nc(N)nc(N)c1Cl)c1nc2cccc(Cl)c2c(=O)n1N1CCN(CC(F)(F)F)CC1 [Compound 108, (S)-5-chloro-2-(1-((2,6-diamino-5-chloropyrimidin-4-yl)amino)ethyl)-3-(4-(2,2,2-trifluoroethyl)piperazin-1-yl)quinazolin-4(3H)-one] yielded an IC50 (PI3Kδ) of 170 nM, an IC50 (PI3Kβ) of 6100 nM and an IC50 (PI3Kγ) greater than 10000 nM.
Compound Cc1nc(N)nc(N[C@@H](C)c2nc3cccc(Cl)c3c(=O)n2N2CCN(CC(F)(F)F)CC2)c1C#N [Compound 109, (S)-2-amino-4-((1-(5-chloro-4-oxo-3-(4-(2,2,2-trifluoroethyl)piperazin-1-yl)-3,4-dihydroquinazolin-2-yl)ethyl)amino)-6-methylpyrimidine-5-carbonitrile] has an IC50 (PI3Kδ) of 14 nM, an IC50 (PI3Kβ) of 290 nM and an IC50 (PI3Kγ) of 660 nM.
For C[C@H](Nc1nc(N)nc(Cl)c1C#N)c1nc2cccc(Cl)c2c(=O)n1N1CCN(CC(F)(F)F)CC1 [Compound 110, (S)-2-amino-4-chloro-6-((1-(5-chloro-4-oxo-3-(4-(2,2,2-trifluoroethyl)piperazin-1-yl)-3,4-dihydroquinazolin-2-yl)ethyl)amino)pyrimidine-5-carbonitrile], the IC50 (PI3Kδ) was 41 nM, the IC50 (PI3Kβ) was 1400 nM and the IC50 (PI3Kγ) was 2800 nM.
C[C@H](Nc1nc(N)nc(N)c1C#N)c1nc2cccc(Cl)c2c(=O)n1N1CCN(CC(F)F)CC1 [Compound 111, (S)-2,4-diamino-6-((1-(5-chloro-3-(4-(2,2-difluoroethyl)piperazin-1-yl)-4-oxo-3,4-dihydroquinazolin-2-yl)ethyl)amino)pyrimidine-5-carbonitrile] gave an IC50 (PI3Kδ) of 24 nM, an IC50 (PI3Kβ) of 530 nM and an IC50 (PI3Kγ) of 730 nM.
C[C@H](Nc1nc(N)nc(N)c1Cl)c1nc2cccc(Cl)c2c(=O)n1N1CCN(CC(F)F)CC1 [Compound 112, (S)-5-chloro-2-(1-((2,6-diamino-5-chloropyrimidin-4-yl)amino)ethyl)-3-(4-(2,2-difluoroethyl)piperazin-1-yl)quinazolin-4(3H)-one] was tested, and the IC50 (PI3Kδ) was 280 nM, the IC50 (PI3Kβ) was 7800 nM and the IC50 (PI3Kγ) was greater than 10000 nM.
C[C@H](Nc1nc(N)nc(Cl)c1C#N)c1nc2cccc(Cl)c2c(=O)n1N1CCN(CC(F)F)CC1 [Compound 113, (S)-2-amino-4-chloro-6-((1-(5-chloro-3-(4-(2,2-difluoroethyl)piperazin-1-yl)-4-oxo-3,4-dihydroquinazolin-2-yl)ethyl)amino)pyrimidine-5-carbonitrile] gave an IC50 (PI3Kδ) of 42 nM, an IC50 (PI3Kβ) of 600 nM and an IC50 (PI3Kγ) of 1300 nM.
With Cc1nc(N)nc(N[C@@H](C)c2nc3cccc(Cl)c3c(=O)n2N2CCN(CC(F)F)CC2)c1C#N [Compound 114, (S)-2-amino-4-((1-(5-chloro-3-(4-(2,2-difluoroethyl)piperazin-1-yl)-4-oxo-3,4-dihydroquinazolin-2-yl)ethyl)amino)-6-methylpyrimidine-5-carbonitrile] the IC50 (PI3Kδ) was 26 nM, the IC50 (PI3Kβ) was 300 nM and the IC50 (PI3Kγ) was 560 nM.
In the case of C[C@H](Nc1ncnc2scnc12)c1nc2cccc(Cl)c2c(=O)n1N1CCN(CC(F)F)CC1 [Compound 115, (S)-5-chloro-3-(4-(2,2-difluoroethyl)piperazin-1-yl)-2-(1-(thiazolo[5,4-d]pyrimidin-7-ylamino)ethyl)quinazolin-4(3H)-one], the IC50 (PI3Kδ) is reported as 37 nM, the IC50 (PI3Kβ) is reported as 1800 nM and the IC50 (PI3Kγ) is reported as 5300 nM.
With C[C@H](Nc1nc(N)nc(N)c1C#N)c1nc2c(F)ccc(Cl)c2c(=O)n1N1CCN(Cc2ccccc2)CC1 [Compound 116, (S)-2,4-diamino-6-((1-(3-(4-benzylpiperazin-1-yl)-5-chloro-8-fluoro-4-oxo-3,4-dihydroquinazolin-2-yl)ethyl)amino)pyrimidine-5-carbonitrile] the IC50 (PI3Kδ) was 15 nM, the IC50 (PI3Kβ) was 13 nM and the IC50 (PI3Kγ) was 470 nM.
C[C@H](Nc1nc(N)nc(N)c1Cl)c1nc2c(F)ccc(Cl)c2c(=O)n1N1CCN(Cc2ccccc2)CC1 [Compound 117, (S)-3-(4-benzylpiperazin-1-yl)-5-chloro-2-(1-((2,6-diamino-5-chloropyrimidin-4-yl)amino)ethyl)-8-fluoroquinazolin-4(3H)-one] gave an IC50 (PI3Kδ) of 220 nM, an IC50 (PI3Kβ) of 570 nM and an IC50 (PI3Kγ) greater than 10000 nM.
With Cc1nc(N)nc(N[C@@H](C)c2nc3c(F)ccc(Cl)c3c(=O)n2N2CCN(Cc3ccccc3)CC2)c1C#N [Compound 118, (S)-2-amino-4-((1-(3-(4-benzylpiperazin-1-yl)-5-chloro-8-fluoro-4-oxo-3,4-dihydroquinazolin-2-yl)ethyl)amino)-6-methylpyrimidine-5-carbonitrile] the IC50 (PI3Kδ) was 17 nM, the IC50 (PI3Kβ) was 14 nM and the IC50 (PI3Kγ) was 650 nM.

Reference: patent EP3154958B1, “PHOSPHATIDYLINOSITOL 3-KINASE INHIBITORS” (Gilead Sciences, Inc., priority 2014, dated 2015)
